PubChem BioAssay (NCI)
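Where inhibition never reached the appropriate level, the endpoint shown equals the highest concentration tested. Otherwise, values were interpolated linearly from a five-concentration, 48-hour dose response in 96-well plates. GI50 marks 50% less growth. TGI marks complete inhibition of growth.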

Experiments:
Assay in all cases: NCI anticancer screen, dose series, 48 h
SN12C renal = system: SN12C renal
SNB-19 CNS = system: SNB-19 CNS
DU-145 prostate = system: DU-145 prostate
OVCAR-3 ovarian = system: OVCAR-3 ovarian
HCT-116 colon = system: HCT-116 colon
SW-620 colon = system: SW-620 colon
HOP-92 NSCLC = system: HOP-92 NSCLC
SK-MEL-2 melanoma = system: SK-MEL-2 melanoma
CAKI-1 renal = system: CAKI-1 renal
KM12 colon = system: KM12 colon
MCF7 breast = system: MCF7 breast
BT-549 breast = system: BT-549 breast
SF-295 CNS = system: SF-295 CNS
HL-60(TB) leukemia = system: HL-60(TB) leukemia
A498 renal = system: A498 renal
MOLT-4 leukemia = system: MOLT-4 leukemia
RPMI-8226 leukemia = system: RPMI-8226 leukemia
K-562 leukemia = system: K-562 leukemia
UACC-257 melanoma = system: UACC-257 melanoma
NCI-H226 lung = system: NCI-H226 lung
SF-539 CNS = system: SF-539 CNS
SNB-75 CNS = system: SNB-75 CNS
MALME-3M melanoma = system: MALME-3M melanoma
NCI-H460 lung = system: NCI-H460 lung
EKVX NSCLC = system: EKVX NSCLC
MDA-MB-231 breast = system: MDA-MB-231 breast
SK-OV-3 ovarian = system: SK-OV-3 ovarian
OVCAR-5 ovarian = system: OVCAR-5 ovarian
SK-MEL-28 melanoma = system: SK-MEL-28 melanoma
ACHN renal = system: ACHN renal
T-47D breast = system: T-47D breast
UO-31 renal = system: UO-31 renal
TK-10 renal = system: TK-10 renal
786-0 renal = system: 786-0 renal
HCT-15 colon = system: HCT-15 colon
UACC-62 melanoma = system: UACC-62 melanoma
NCI/ADR-RES ovarian = system: NCI/ADR-RES ovarian
SF-268 CNS = system: SF-268 CNS
SR leukemia = system: SR leukemia
HCC-2998 colon = system: HCC-2998 colon
COLO 205 colon = system: COLO 205 colon
IGROV1 ovarian = system: IGROV1 ovarian
OVCAR-4 ovarian = system: OVCAR-4 ovarian
NCI-H23 lung = system: NCI-H23 lung
SK-MEL-5 melanoma = system: SK-MEL-5 melanoma
HS 578T breast = system: HS 578T breast
M14 melanoma = system: M14 melanoma
MDA-MB-435 = system: MDA-MB-435
RXF 393 renal = system: RXF 393 renal
HT29 colon = system: HT29 colon
PC-3 prostate = system: PC-3 prostate
OVCAR-8 ovarian = system: OVCAR-8 ovarian
A549 NSCLC = system: A549 NSCLC
HOP-62 NSCLC = system: HOP-62 NSCLC
U251 CNS = system: U251 CNS

O=C(Nc1cccc(Cl)c1)Nc1nc2ccc([N+](=O)[O-])cc2o1
GI50 (SN12C renal): 2.28 µM | TGI (SN12C renal): 7.43 µM | GI50 (SNB-19 CNS): 2.79 µM | TGI (SNB-19 CNS): 86.5 µM | GI50 (DU-145 prostate): 3.53 µM | TGI (DU-145 prostate): > 100 µM | GI50 (OVCAR-3 ovarian): 2.51 µM | TGI (OVCAR-3 ovarian): 11.4 µM | GI50 (HCT-116 colon): 2.59 µM | TGI (HCT-116 colon): 10.3 µM | GI50 (SW-620 colon): 2.71 µM | TGI (SW-620 colon): > 100 µM | GI50 (HOP-92 NSCLC): 1.65 µM | TGI (HOP-92 NSCLC): 6.04 µM | GI50 (SK-MEL-2 melanoma): 2.09 µM | TGI (SK-MEL-2 melanoma): 6.11 µM | GI50 (CAKI-1 renal): 2.17 µM | TGI (CAKI-1 renal): 7.56 µM | GI50 (KM12 colon): 3.17 µM | TGI (KM12 colon): > 100 µM | GI50 (MCF7 breast): 2.82 µM | TGI (MCF7 breast): > 100 µM | GI50 (BT-549 breast): 2.09 µM | TGI (BT-549 breast): 7.79 µM | GI50 (SF-295 CNS): 1.99 µM | TGI (SF-295 CNS): 6.02 µM | GI50 (HL-60(TB) leukemia): 2.09 µM | TGI (HL-60(TB) leukemia): 4.99 µM | GI50 (A498 renal): 1.56 µM | TGI (A498 renal): 4.5 µM | GI50 (MOLT-4 leukemia): 2.36 µM | TGI (MOLT-4 leukemia): 7.71 µM | GI50 (RPMI-8226 leukemia): 1.48 µM | TGI (RPMI-8226 leukemia): 5.02 µM | GI50 (K-562 leukemia): 3.02 µM | TGI (K-562 leukemia): > 100 µM | GI50 (UACC-257 melanoma): 2.25 µM | TGI (UACC-257 melanoma): 18.3 µM | GI50 (NCI-H226 lung): 2.13 µM | TGI (NCI-H226 lung): 5.42 µM | GI50 (SF-539 CNS): 2.75 µM | TGI (SF-539 CNS): 7.32 µM | GI50 (SNB-75 CNS): 2.68 µM | TGI (SNB-75 CNS): 9.8 µM | GI50 (MALME-3M melanoma): 2.49 µM | TGI (MALME-3M melanoma): 36 µM | GI50 (NCI-H460 lung): 1.74 µM | TGI (NCI-H460 lung): 5.88 µM | GI50 (EKVX NSCLC): 2.82 µM | TGI (EKVX NSCLC): > 100 µM | GI50 (MDA-MB-231 breast): 2.67 µM | TGI (MDA-MB-231 breast): 8.54 µM | GI50 (SK-OV-3 ovarian): 2.7 µM | TGI (SK-OV-3 ovarian): 8.33 µM | GI50 (OVCAR-5 ovarian): 4.32 µM | TGI (OVCAR-5 ovarian): > 100 µM | GI50 (SK-MEL-28 melanoma): 3.22 µM | TGI (SK-MEL-28 melanoma): > 100 µM | GI50 (ACHN renal): 3.23 µM | TGI (ACHN renal): 12.7 µM | GI50 (T-47D breast): 1.47 µM | TGI (T-47D breast): 7.59 µM | GI50 (UO-31 renal): 2.67 µM | TGI (UO-31 renal): 7.82 µM | GI50 (TK-10 renal): 3.5 µM | TGI (TK-10 renal): 8.43 µM | GI50 (786-0 renal): 2.49 µM | TGI (786-0 renal): 7.77 µM | GI50 (HCT-15 colon): 2.46 µM | TGI (HCT-15 colon): > 100 µM | GI50 (UACC-62 melanoma): 1.54 µM | TGI (UACC-62 melanoma): 4.81 µM | GI50 (NCI/ADR-RES ovarian): 2.66 µM | TGI (NCI/ADR-RES ovarian): 8.84 µM | GI50 (SF-268 CNS): 3.04 µM | TGI (SF-268 CNS): > 100 µM | GI50 (SR leukemia): 2.69 µM | TGI (SR leukemia): 7.84 µM | GI50 (HCC-2998 colon): 3.19 µM | TGI (HCC-2998 colon): 48.3 µM | GI50 (COLO 205 colon): 2.4 µM | TGI (COLO 205 colon): 7.82 µM | GI50 (IGROV1 ovarian): 2.83 µM | TGI (IGROV1 ovarian): > 100 µM | GI50 (OVCAR-4 ovarian): 2.56 µM | TGI (OVCAR-4 ovarian): > 100 µM | GI50 (NCI-H23 lung): 1.9 µM | TGI (NCI-H23 lung): 7.09 µM | GI50 (SK-MEL-5 melanoma): 1.51 µM | TGI (SK-MEL-5 melanoma): 4.19 µM | GI50 (HS 578T breast): 3.3 µM | TGI (HS 578T breast): 54.4 µM | GI50 (M14 melanoma): 2.54 µM | TGI (M14 melanoma): 22.8 µM | GI50 (MDA-MB-435): 2.88 µM | TGI (MDA-MB-435): > 100 µM | GI50 (RXF 393 renal): 1.66 µM | TGI (RXF 393 renal): 5.16 µM | GI50 (HT29 colon): 3.08 µM | TGI (HT29 colon): > 100 µM | GI50 (PC-3 prostate): 2.18 µM | TGI (PC-3 prostate): 9.12 µM | GI50 (OVCAR-8 ovarian): 3.12 µM | TGI (OVCAR-8 ovarian): > 100 µM | GI50 (A549 NSCLC): 3.06 µM | TGI (A549 NSCLC): > 100 µM | GI50 (HOP-62 NSCLC): 2.49 µM | TGI (HOP-62 NSCLC): 9.14 µM | GI50 (U251 CNS): 2.71 µM | TGI (U251 CNS): > 100 µM
